Columns and labels:
TtgR [1] = biological target: TtgR (Pseudomonas putida, UniProt Q9AIU0, R176G); experiment: biochemical
TtgR [2] = biological target: T1, TtgR (Pseudomonas putida, UniProt Q9AIU0); experiment: isothermal titration calorimetry; assay type: binding
T1 construct: full-length, ttgR in pET29a+, expressed in E. coli B834(DE3); heparin and gel filtration purification; homodimer; residues about 10-210 seen in crystals

TtgR [3] = biological target: T1, TtgR; experiment: X-ray crystal structure of complex; settings: general binding site, 2 per dimer; co-crystal, 2.4 Å

| SMILES | Kd (TtgR [1]) [µM] | Kd (TtgR [2]) [µM] | X-ray crystal structure of complex (TtgR [3]) |
| --- | --- | --- | --- |
| O=C(CCc1ccc(O)cc1)c1c(O)cc(O)cc1O [phloretin] | 9.2 ± 0.5 | 0.05 ± 0.01 | – |
| O=c1c(O)c(-c2ccc(O)c(O)c2)oc2cc(O)cc(O)c12 [quercetin] | – | – | Both effectors bind at similar locations to the hydrophobic binding site as tetracycline and chloramphenicol |

Reference: paper PMC2756574, “Crystal Structures of Multidrug Binding Protein TtgR in Complex with Antibiotics and Plant Antimicrobials” (Journal of Molecular Biology, 2007)
